Experimental data from patent US20140271930A1, “NONINVASIVE METHOD FOR MEASURING METABOLITES FOR SKIN HEALTH” (priority 2013, published 2014).
Marks after values point to notes of the source that are not given here. Peptide text beside a SMILES is read from it.

Tested on: scalp of dandruff and non-dandruff subjects
Test: Metabolite expression profiling (LC/MS/MS, GC/MS/MS) of scalp D-Squame tape strip extracts: non-dandruff, dandruff baseline, dandruff after 3 weeks anti-dandruff shampoo
Type: in vivo, human
Conditions: for Fold Change Wk 3 Sel vs Dandruff Baseline / Fold Change Wk 3 ZPT vs Dandruff Baseline / Fold Change Wk 3 ZPT vs Non-Dan Baseline / Fold Change Wk 3 Sel vs Non-Dan Baseline: metabolite level in scalp tape strips; for Fold Change Wk 3 Sel vs Dandruff Baseline / Fold Change Wk 3 ZPT vs Dandruff Baseline: standardized to soluble protein; for Fold Change Wk 3 Sel vs Dandruff Baseline: dandruff subjects after 3 weeks 1% selenium sulfide shampoo vs own baseline; for Fold Change Wk 3 ZPT vs Dandruff Baseline: dandruff subjects after 3 weeks 1% zinc pyrithione shampoo vs own baseline; for Fold Change Wk 3 ZPT vs Non-Dan Baseline: dandruff subjects after 3 weeks 1% ZPT shampoo vs non-dandruff subjects; for Fold Change Wk 3 Sel vs Non-Dan Baseline: dandruff subjects after 3 weeks 1% selenium sulfide shampoo vs non-dandruff subjects; for reduction / decrease of metabolite level vs dandruff baseline: after three weeks ZPT shampoo; for decrease of metabolite level vs dandruff baseline: after three weeks selenium sulfide shampoo
Text: In an embodiment, the use of an adhesive device can be used to achieve such sampling. In preparation for such a sampling study for a dandruff sampling, at a baseline visit, a qualified screening grader will complete adherent scalp flaking score (ASFS) grading for each subject and the highest flaking octant will be identified for tape strip sampling. The highest flaking octant will be sampled at baseline and at various time points during and after treatment with product. Tape strips samples will be collected from each subject at each time point (e.g., baseline and week 3).
The tape strip sampling procedure is repeated additional times, as needed, at the same site placing each D-Squame® tape disc on top of the prior sampled area. The D-Squame® tapes after sample collection are placed into the appropriately labeled wells in a labeled plate.
Following the sampling, an extraction and quantitation procedure is conducted. In an embodiment of the present invention, quantitation of small molecules from extracts of D-Squame® Tape Samples can be conducted via analysis by either LC/MS/MS or GC/MS/MS. In this embodiment of the present invention, the sample extraction in preparation for Metabolite expression profiling technology was performed.
The D-Squame® tape sample plates are removed from −80° C. freezer where they are stored following sample collection, and placed on dry ice. The tape strips are inserted into pre-labeled polypropylene collection tubes, adhesive side facing inward. Extraction buffer containing methanol and water is added to each collection tube and then extracted on ice using sonication for 15 min. If necessary, additional tapes are placed in the collection tube containing the extract solution and the extraction process is repeated as a means of concentrating the sample. Each extract solution is isolated from the tape strip and an aliquot of each sample is placed into a pre-labeled polypropylene collection tubes and frozen at −80° C. for metabolite expression profiling analysis. A separate aliquot is specified for soluble protein analysis using a BCA™ Protein Assay Kit. For this analysis, the aliquot consisting of methanol and water is taken to dryness under a gentle stream of nitrogen. The sample is resuspended in an appropriate aqueous buffer (e.g., PBS/SDS (1× PBS+0.2% SDS) and analyzed for soluble protein.
The extracts are analyzed by GC/MS/MS and LC/MS/MS in positive and negative ion mode. Chromatographic separation followed by full scan mass spectra and MS/MS spectra is carried out to record and quantify all detectable ions present in the samples. Metabolites with known chemical structure can be identified by matching the ions' chromatographic retention index and mass spectra fragmentation signatures with reference library entries created from authentic standard metabolites under the identical analytical procedure as the experimental samples. Welch's Two Sample t-tests and matched-pair t-tests are used to analyze the data. […] The statistical analyses are performed on natural log-transformed data to reduce the effect of any potential outliers in the data. Welch's Two Sample t-test comparisons are made between the means of each biochemical from the various groups listed at the top of the tables and are calculated using either or both of the statistical analysis software programs: Array Studio (Omicsoft, Inc) or “R” from the Free Software Foundation, Inc.
Subjects are evaluated by a qualified grader to establish their scalp status. Dandruff subjects are identified by their level of visible flaking as assessed by a qualified grader. Non-dandruff healthy scalp subjects are evaluated at baseline to establish normalized levels of each biomarker. In this study, there are 60 non-dandruff subjects that are evaluated at baseline. […] They are evaluated at baseline, and after 3 weeks of product usage.

[1] = dandruff subjects after 3 weeks treatment with Sel shampoo, metabolite level in scalp tape strip extract
[2] = dandruff subjects after 3 weeks treatment with ZPT shampoo, metabolite level in scalp tape strip extract
[3] = relative metabolite level in scalp tape strips, dandruff subjects after 3 weeks 1% ZPT shampoo
[4] = relative metabolite level in scalp tape strips, dandruff subjects after 3 weeks 1% selenium sulfide shampoo

Structure (SMILES) | Mean Values WEEK 3 TRT Sel [1] | Mean Values WEEK 3 TRT ZPT [2] | Fold Change Wk 3 Sel vs Dandruff Baseline | Fold Change Wk 3 ZPT vs Dandruff Baseline | Fold Change Wk 3 ZPT vs Non-Dan Baseline | Fold Change Wk 3 Sel vs Non-Dan Baseline | reduction / decrease of metabolite level vs dandruff baseline [%] | decrease of metabolite level vs dandruff baseline [%] | Mean Values WEEK 3 TRT ZPT [3] | Mean Values WEEK 3 TRT Sel [4]
Cn1cc(C(N)=O)ccc1=O [N1-Methyl-2-pyridone-5-carboxamide] | 0.8271 | 1.1768 | 0.89 fold | 1.57 fold | 0.76 fold | 0.54* fold | – | – | – | –
CCCCCC/C=C\CCCCCCCC(=O)O [Palmitoleate (16:1n7), Palmitoleate] | 0.6347 | 0.8507 | 0.55* fold | 0.83* fold | 0.58* fold | 0.43* fold | – | – | – | –
CCCCCCCCCCCCCCCCCC(=O)NCCO [Stearoyl ethanolamide] | 2.6645 | 2.3466 | 5.03** fold | 2.94 fold | 3.88** fold | 4.41** fold | – | – | – | –
NC(N)=O [Urea] | 2.5539 | 2.6469 | 2.81**** fold | 4.13 fold | 3.75 fold | 3.62** fold | – | – | – | –
O=c1[nH]c(=O)c2[nH]cnc2[nH]1 [Xanthine] | – | – | – | – | – | – | 84 | 85 | – | –
CCCCCCCCCCCCCCCCCCCC(=O)O [arachidate (20:0), arachidate] | 0.6154 | 0.7662 | 0.42* fold | 0.55* fold | 0.56*** fold | 0.45*** fold | – | – | – | –
CCCCC/C=C\C/C=C\C/C=C\C/C=C\CCCC(=O)O [arachidonate (20:4n6), arachidonate] | – | – | – | – | – | – | 44 | 70 | – | –
CCCCCCCCCCCCCCCCCCCCCC(=O)O [behenate (22:0), behenate] | – | – | 0.84 fold | 0.47 fold | 0.34* fold | 0.57*** fold | – | – | – | –
O=C(O)/C=C\c1cnc[nH]1 [cis-urocanate] | – | – | 1.22 fold | 1.19 fold | 0.91 fold | 0.99 fold | – | – | – | –
CCCCC/C=C\C/C=C\CCCCCCCCCC(=O)O [dihomo-linoleate (20:2n6), dihomo-linoleate] | 0.214 | 0.3984 | 0.15* fold | 0.3* fold | 0.32* fold | 0.17* fold | – | – | – | –
CCCCC/C=C\C/C=C\CCCCCCCCCCCC(=O)O [docosadienoate (22:2n6), docosadienoate] | 0.1554 | 0.3022 | 0.12* fold | 0.24* fold | 0.28* fold | 0.14* fold | – | – | – | –
CC/C=C\C/C=C\C/C=C\CCCCCCCCCCCC(=O)O [docosatrienoate (22:3n3), docosatrienoate] | 0.2735 | 0.5705 | 0.13* fold | 0.26* fold | 0.32 fold | 0.15* fold | – | – | – | –
O=P(O)(O)OCC(O)CO (stereo not shown) [glycerol 3-phosphate (G3P)] | 0.8007 | 0.5943 | – | – | – | – | – | – | – | –
O=C(O)CCc1cnc[nH]1 [imidazole propionate] | – | – | – | – | – | – | – | – | 0.8095 | 0.7836
CC(C)CCCCCCCCCCCCC(=O)O [isopalmitic acid] | 0.3034 | 0.5169 | 0.23* fold | 0.41* fold | 0.41* fold | 0.24* fold | – | – | – | –
CCCCC/C=C\C/C=C\CCCCCCCC(=O)O [linoleate (18:2n6), linoleate] | – | – | – | – | – | – | 82 | 78 | – | –
CCCCCCCCCCCCCCCCC(=O)O [margarate (17:0), margarate] | 0.3903 | 0.6953 | 0.31* fold | 0.6*** fold | 0.45* fold | 0.25* fold | – | – | – | –
CCCCCCCCCCCCCCCCCCC(=O)O [nonadecanoate (19:0), nonadecanoate] | 0.3608 | 0.5421 | 0.29* fold | 0.47* fold | 0.39* fold | 0.26* fold | – | – | – | –
CCCCCCCC/C=C\CCCCCCCC(=O)NCCO [oleic ethanolamide] | 1.1213 | 1.5447 | – | – | – | – | – | – | – | –
CCCCCCCCCCCCCCC(=O)O [pentadecanoate (15:0), pentadecanoate] | 0.3057 | 0.5867 | 0.19* fold | 0.4* fold | 0.37* fold | 0.19* fold | – | – | – | –
CC[C@H](C)[C@H](NC(=O)[C@@H](N)CO)C(=O)O [serylisoleucine*] (H-Ser-Ile-OH) | 1.1161 | 0.9496 | – | – | – | – | – | – | – | –
O=C(O)/C=C/c1cnc[nH]1 [trans-urocanate] | – | – | 0.74* fold | 0.87 fold | 1.41 fold | 1.21 fold | – | – | 1.0096 | 0.8661
